Active and inactive are the calls of the source. No cut-off for these calls is given here. Some results are limits rather than exact numbers.

The text below walks through data of ChEMBL document CHEMBL2157990 (ACS Med Chem Lett, 2012).

Experiment [1] in a line: Activation of chymotrypsin-like activity of human 20S proteasome using suc-LLVY-AMC as substrate by fluorescence assay.
Experiment [2] is described as follows: Inhibition of PA28 activated chymotrypsin-like activity of human 20S proteasome using suc-LLVY-AMC as substrate by fluorescence assay.
Experiment [3] is filed under the species Homo sapiens. Description: Activation of chymotrypsin-like activity of human 20S proteasome using suc-LLVY-AMC as substrate by fluorescence assay relative to control.
Experiment [4] is described as follows: Activation of trypsin-like activity of human 20S proteasome using Bz-VGR-AMC as substrate by fluorescence assay.
Experiment [5] can be described thus: Activation of caspase-like activity of human 20S proteasome using (Z)-LLE-bNA as substrate by fluorescence assay.
For experiment [6], the species on record is Homo sapiens. Description: Activation of chymotrypsin-like activity of human 20S proteasome using suc-LLVY-AMC as substrate at 18 uM by fluorescence assay.
The species entered for experiment [7] is Homo sapiens. Description: Reversal of amyloid beta-induced inhibition of chymotrypsin-like activity of PA28-activated human 20S proteasome using suc-LLVY-AMC as substrate at 14 uM by fluorescence assay. On the set-up: scale not given: the % may be the effect or the level left.
The species named for experiment [8] is Homo sapiens. The experiment can be described thus: Reversal of amyloid beta-induced inhibition of chymotrypsin-like activity of PA28-activated human 20S proteasome using suc-LLVY-AMC as substrate by fluorescence assay.
The species entered for experiment [9] is Homo sapiens. The experiment can be described thus: Activation of chymotrypsin-like activity of human 20S proteasome using suc-LLVY-AMC as substrate at 18 uM by fluorescence assay in presence of 1.1 to 30 ug/mL.

The term EC50 denotes the concentration at which the effect is half-maximal. A word on the IC50: it is the concentration that gives 50% inhibition. Take `COC(=O)CC[C@@H](C)[C@H]1CC[C@H]2[C@@H]3CC[C@@H]4C[C@H](NC(=O)CCCCCC(=O)O)CC[C@]4(C)[C@H]3CC[C@]12C`: the EC50 in experiment [1] (read-out: EC50) was 4.3 µM. Also, the IC50 entry in experiment [2] is “Not Active”. In [3], this compound yielded a fold change (FC) of 2.
With `C[C@H](CCC(=O)O)[C@H]1CC[C@H]2[C@@H]3CC[C@@H]4C[C@H](OC(=O)CCCCCC(=O)O)CC[C@]4(C)[C@H]3CC[C@]12C`, in [1] (read-out: EC50), the EC50 was greater than 15 µM. Also, in experiment [2], the IC50 result was “Not Active”.
As for `COC(=O)CC[C@@H](C)[C@H]1CC[C@H]2[C@@H]3CC[C@@H]4C[C@@H](NC(=O)CCCCCC(=O)O)CC[C@]4(C)[C@H]3CC[C@]12C`, in experiment [1], the EC50 result is listed as “Not Active”. The IC50 in experiment [2] (read-out: IC50) was 2.6 µM.
As to `COC(=O)CC[C@@H](C)[C@H]1CC[C@H]2[C@@H]3CC[C@@H]4C[C@H](N)CC[C@]4(C)[C@H]3CC[C@]12C`, in experiment [1] (read-out: EC50), the EC50 stood at 6.7 µM. Also, in experiment [2], the IC50 result is “Not Active”.
On to `COC(=O)CC[C@@H](C)[C@H]1CC[C@H]2[C@@H]3CC[C@@H]4C[C@@H](OC(=O)CCCCCC(=O)O)CC[C@]4(C)[C@H]3CC[C@]12C`, for which the EC50 result in experiment [1] is given as “Not Active”. Further, in experiment [2] (read-out: IC50), the IC50 was 3.1 µM.
For `COC(=O)CC[C@@H](C)[C@H]1CC[C@H]2[C@@H]3CC[C@@H]4C[C@@H](N)CC[C@]4(C)[C@H]3CC[C@]12C`, in that order: “Not Active” and 5.7 µM.
`C/C=C1/[C@H](O[C@@H]2O[C@H](CO)[C@@H](O)[C@H](O)[C@H]2O)OC=C(C(=O)OC)[C@H]1CC(=O)OCCc1ccc(O)c(O)c1` [OLEUROPEIN]: the EC50 entry in experiment [1] is recorded as “Not Active”. Also, the IC50 entry in [2] is recorded as “Not Active”.
Regarding `COC(=O)CC[C@@H](C)[C@H]1CC[C@H]2[C@@H]3CC[C@@H]4C[C@H](OC(=O)CCCCCC(=O)O)CC[C@]4(C)[C@H]3CC[C@]12C`, the EC50 came out at 7.8 µM in [1] (read-out: EC50), 8.6 µM in experiment [4] and 11 µM in [5]. Moreover, the IC50 entry in [2] is “Not Active”. Besides, the result in experiment [6] and in [9] was Active. Further, the Activity was 50% in experiment [7] and “Dose-dependent effect” in experiment [8].
As for `CNC(=O)CC[C@@H](C)[C@H]1CC[C@H]2[C@@H]3CC[C@@H]4C[C@H](OC(=O)CCCCCC(=O)O)CC[C@]4(C)[C@H]3CC[C@]12C`, the EC50 result in [1] is given as “Not Active”. Also, the 50% inhibitory concentration (IC50) result in experiment [2] is given as “Not Active”.
For `CCOC(=O)CC[C@@H](C)[C@H]1CC[C@H]2[C@@H]3CC[C@@H]4C[C@H](OC(=O)CCCCCC(=O)O)CC[C@]4(C)[C@H]3CC[C@]12C`, the EC50 in experiment [1] (read-out: EC50) is greater than 15 µM. Besides, the IC50 entry in experiment [2] was “Not Active”.
For the compound `C[C@H](CCC(=O)O)[C@H]1CC[C@H]2[C@@H]3CC[C@@H]4C[C@H](O)CC[C@]4(C)[C@H]3CC[C@]12C` [LITHOCHOLIC ACID], the EC50 result in experiment [1] is “Not Active”. In addition, the IC50 in [2] (read-out: IC50) was greater than 10 µM.
